Usually EC50 stands for the concentration needed to bring the measured effect to its halfway point.

This is an account of results in patent US7579371B2, “Methods of using [3.2.0] heterocyclic compounds and analogs thereof” (Nereus Pharmaceuticals, Inc., priority 2004, dated 2009).

“And” between values parts separate entries of the source, which are not always exact repeats. Identical values can stand only once. Like-named read-outs stand apart in the source and are kept apart here.

The subject of one series is PC-3 cells. As to the kind of experiment: PARP and Pro-Caspase 3 cleavage in PC-3 cells (western blot). In kind it is cell-based, human. The settings on record: 100 nM; 0, 8 or 24 hours. The protocol:
(§1) Total protein lysates were made and 20 μg of the lysates were then resolved under reducing/denaturing conditions and blotted onto nitrocellulose. The blots were then probed with anti-PARP or anti-caspase 3 antibodies followed by stripping and reprobing with an anti-actin antibody.
For orientation: Immunoblotting shows a protein as a band on a membrane.

Series [1] concerns the target T1, 20S proteasome chymotrypsin-like activity in PC-3 cells (Homo sapiens, UniProt P28074).
T1 construct: PC-3 (ATCC, CRL-1435), the human prostate cancer cell line; host or cells: PC-3
T1 sequence (P28074 60-263): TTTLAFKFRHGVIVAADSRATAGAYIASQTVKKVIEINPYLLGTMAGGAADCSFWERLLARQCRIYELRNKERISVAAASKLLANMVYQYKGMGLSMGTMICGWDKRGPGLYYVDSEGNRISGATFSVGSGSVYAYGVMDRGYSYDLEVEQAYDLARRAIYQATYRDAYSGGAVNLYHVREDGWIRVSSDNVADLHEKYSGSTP
In words: Chymotrypsin-like activity of 20S proteasomes in treated PC-3 cells. In kind it is cell-based. The note with it: 5 nM, 1 hr. The protocol: PC-3 (ATCC, CRL-1435), the human prostate cancer cell line, was cultured in F12K medium supplemented with 2 mM L-glutamine, 100 units/ml penicillin, 100 μg/ml streptomycin and 10% heat inactivated fetal bovine serum at 37° C., 5% CO2 and 95% humidified air. […] DMSO was used as the vehicle control at a final concentration of 0.1%. Following 1 hr incubation of PC-3 cells with the compounds, the cells were washed 3× with ice-cold 1× Dulbecco's Phosphate-Buffered Saline (DPBS, Mediatech, Herndon, Va.). […] Cell debris was pelleted by centrifugation at 14,000 rpm for 10 min, 4° C. and supernatants (=cell lysates) were transferred to a new tube. Protein concentration was determined by the BCA protein assay kit (Pierce Biotechnology, Rockford, Ill.). […] The released coumarin (AMC) was measured fluorometrically by using λex=390 nm and λem=460 nm. The assay was performed in a microtiter plate (Corning 3904) and followed kinetically with measurements every five minutes for 2 hr. The total amount of protein used for each assay was 20 μg. The final concentration of Suc-LLVY-AMC and DMSO was 20 μM and 0.2%, respectively. Results are presented as the percent inhibition of the 20S proteasome chymotrypsin-like activity relative to the DMSO control.

Another series deals with MDA-MB-231. In words: Cell growth inhibition assay (resazurin, 48 h). The series is classed as cell-based, human. The note with it: MDA-MB-231, 48 h.
The test system of a further series is CCD-27sk. As to the kind of experiment: Cytotoxic activity, 48 h, normal human fibroblasts. The series is classed as cell-based.
Series [2] deals with T2, human erythrocyte proteasomes, Caspase-like activity (Homo sapiens, UniProt P28072).
T2 construct: from tissue; host or cells: human erythrocytes
As to the kind of experiment: Caspase-like activity of human erythrocyte proteasomes. In kind it is biochemical.

The subject of a further series is HL-60. In words: cells. The note with it: Homo sapiens, HL-60, 48 h.
The target in series [3] is T3, human erythrocyte proteasomes, Trypsin-like activity (Homo sapiens, UniProt Q99436).
T3 construct: from tissue; host or cells: human erythrocytes
As to the kind of experiment: Trypsin-like activity of human erythrocyte proteasomes. In kind it is biochemical.

A further series has as its system NF-κB. As to the kind of experiment: NF-κB-mediated luciferase reporter gene assay, HEK293 NF-κB/Luc cells, TNF-α stimulation. In kind it is cell-based. The settings on record: Homo sapiens, HEK293, read-out: EC50, NF-κB-mediated luciferase activity, 1 hr pretreatment, 6 hours TNF-α. The protocol:
The HEK293 NF-κB/luciferase reporter cell line is a derivative of the human embryonic kidney cell line (ATCC; CRL-1573) and carries a luciferase reporter gene under the regulation of 5× NF-κB binding sites. […] When performing the luciferase assay, the DMEM basal medium was replaced with phenol-red free DMEM basal medium and the G418 was omitted.
For NF-κB-mediated luciferase assays, HEK293 NF-κB/luciferase cells were seeded at 1.5×10^4 cells/well in 90 μl phenol-red free DMEM complete medium into Corning 3917 white opaque-bottom tissue culture plates. For Formulae II-2, II-4, II-5A and II-18, a 400 μM starting dilution was made in 100% DMSO and this dilution was used to generate an 8-point half log dilution series. […] For formula II-20, a 2.5 mM or 8 mM starting dilution was made in 100% DMSO and the final test concentrations ranged from 6.3 μM to 2.0 nM or 20 μM to 6.3 nM respectively. The plates were returned to the incubator for 1 hour. After 1 hr pretreatment, 10 μl of a 50 ng/ml TNF-α solution, prepared in the phenol-red free DMEM medium was added, and the plates were incubated for an additional 6 hours.
At the end of the TNF-α stimulation, 100 μl of Steady Lite HTS luciferase reagent (Packard Bioscience) was added to each well and the plates were left undisturbed for 10 min at room temperature before measuring the luciferase activity. The relative luciferase units (RLU) were measured by using a Fusion microplate fluorometer (Packard Bioscience).
NF-κB inducible luciferase activity was measured at 6 hours.
On the technique in general: Reporter assays use an easily measured gene product as a stand-in for the process of interest.

The next series relates to tumor cell lines. As to the kind of experiment: Growth inhibition / cytotoxicity, summary over tumor cell lines. In kind it is cell-based.
A further series concerns HL-60/MX2. In words: Cell growth inhibition assay (resazurin, 48 h). The note with it: for EC50: HL-60/MX2, 48 h. The protocol: The DNA binding agent Mitoxantrone was included as a control, as HL-60/MX2 cells are reported to be resistant to this chemotherapeutic agent (Harker W. G. et al. 1989).
Concentrations ranging from 6.32 μM to 2 nM were tested for II-2 and II-4.
HL-60/MX2 is a multidrug resistant tumor cell line derived from the human promyelocytic leukemia cell line, HL-60 and expresses reduced topoisomerase II activity. […] Mitoxantrone, the topoisomerase II targeting agent was included as a control.
For orientation: Resazurin is reduced to fluorescent resorufin, in cell work by metabolically active cells.

In the next series the test system is MIA PaCa-2. In words: Cell growth inhibition assay (resazurin, 48 h). The series is classed as cell-based. The note with it: Homo sapiens, MIA PaCa-2, 48 h.
The test system of another series is MES-SA. In words: Cell growth inhibition assay (resazurin, 48 h). In kind it is cell-based, human.
Another series can be described thus: LogD7.4 determination. The note with it: pH 7.4. From the text: These studies consisted of solubility assessment, LogD^7.4 determination and a preliminary screen to detect cytochrome P450 enzyme inhibition.
In a further series the test system is RPMI 8226 cells. As to the kind of experiment: PARP and Pro-Caspase 3 cleavage in RPMI 8226 cells (western blot). The note with it: 100 nM; 0, 8 or 24 hours. The series is classed as cell-based, human. The protocol: as §1
25 μg of the lysates were then resolved under reducing/denaturing conditions and blotted onto nitrocellulose. The blots were then probed with anti-PARP or anti-caspase 3 antibodies followed by stripping and reprobing with an anti-actin antibody.

The subject of the next series is U266. As to the kind of experiment: Cell growth inhibition assay (resazurin, 48 h). The settings on record: Homo sapiens, U-266, 48 h, U266, 48 h. The series is classed as cell-based.

As to `C[C@@]12OC(=O)[C@]1([C@@H](O)[C@@H]1C=CCCC1)NC(=O)[C@@H]2CCCl` [Formula II-16, Salinosporamide A], the “cleavage of PARP” value with PC-3 cells is on record as “cleavage of PARP is noticeable at 24 hours”. Further, the “% inhibition of the chymotrypsin-like activity of 20S proteasomes in PC-3 cell lysates” value in [1] is on record as 69%. The EC50 with MDA-MB-231 (Homo sapiens) is 67 nM; in the series on MDA-MB-231 it was 87 ± 40 nM; with CCD-27sk, 196 nM; in [2], ~390 nM; in the series on HL-60, 27 nM; in series [3], ~9 nM. Besides, the EC50 is ~7 nM with NF-κB; 10 to 37 nM with tumor cell lines (RPMI 8226, PC-3, DU 145, 48 hour, read-out: EC50 values against RPMI 8226 and the prostate cell lines, range); 10 to 200 nM with tumor cell lines (read-out: EC50 values for cytotoxicity, range); 25 nM in the series with HL-60/MX2; 28 nM in the series on HL-60/MX2 (Homo sapiens, HL60/MX2, 48 h); 46 nM with MIA PaCa-2. Moreover, the EC50 in the series with MES-SA (Homo sapiens, 48 h) worked out at 20 ± 5 nM; in the series with U266, 4.7 ± 0.7 nM. Also, the “% cytotoxicity” value is 84% and 89% in the series with HL-60/MX2 (HL-60/MX2); 94 ± 1% in the series on MES-SA. The molecule also came in with a LogD7.4 in “LogD7.4 determination” of 2.4. Besides, the “cleavage of PARP and Pro-caspase 3” value in the series with RPMI 8226 cells was “cleavage of PARP and Pro-caspase 3 in a time-dependent manner”.
